Like-named read-outs stand apart in the source and are kept apart here.
Key:
TEAD3 = TEAD3 (Homo sapiens (Human), UniProt Q99594); assay: TR-FRET lipid pocket probe competition assay (Lipid HTRF), TEAD3; assay type: binding
Description: (§1) His-tagged TEAD proteins are pre-incubated with TEAD project compounds for 30 minutes or 4 hours at room temperature. Biotinylated lipid pocket probes are then added to the TEAD/Compound mixture and incubated for 60 minutes at room temperature. The lipid pocket probe competes with the test compound for the TEAD lipid pocket until equilibrium is reached. After 60 minutes, Europium labelled anti-His (Perkin Elmer #AD0110) and XL665 labelled streptavidin (CIS Bio 610SAXAC) are added to the TEAD/test compound/lipid pocket mixture and incubated for 30 minutes or 4 hours. […] If a TEAD lipid pocket binder such as binds and displaces the lipid pocket probe, the disruption of the TEAD:probe interaction results in a decrease in TR-FRET signal. The potency of compounds as TEAD lipid pocket binders is determined by IC50 value generated using a non-linear 4 parameter curve fit.

TEAD2 [1] = target: T1, TEAD2 (Homo sapiens (Human), UniProt Q15562); assay: biochemical;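 further: TR-FRET competition assay with His-tagged TEAD protein and a biotinylated lipid pocket probe, compound pre-incubated 30 min or 4 h at room temperature, displacement lowers signal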
T1 sequence (Q15562 whole entry, species assumed): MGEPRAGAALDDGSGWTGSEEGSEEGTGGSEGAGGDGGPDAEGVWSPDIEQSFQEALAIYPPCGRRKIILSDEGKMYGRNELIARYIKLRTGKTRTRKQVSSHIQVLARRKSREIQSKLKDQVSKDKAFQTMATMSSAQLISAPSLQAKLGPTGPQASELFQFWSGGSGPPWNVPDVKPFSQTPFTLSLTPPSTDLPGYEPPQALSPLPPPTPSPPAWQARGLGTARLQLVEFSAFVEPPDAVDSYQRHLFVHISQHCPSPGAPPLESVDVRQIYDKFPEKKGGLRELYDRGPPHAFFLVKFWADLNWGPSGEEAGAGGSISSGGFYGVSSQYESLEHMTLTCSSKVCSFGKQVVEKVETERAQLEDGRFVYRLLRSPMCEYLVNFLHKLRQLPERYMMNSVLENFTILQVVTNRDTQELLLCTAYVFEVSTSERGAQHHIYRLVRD
Description: (§2) His-tagged TEAD proteins are pre-incubated with TEAD project compounds for 30 minutes or 4 hours at room temperature. Biotinylated lipid pocket probes are then added to the TEAD/Compound mixture and incubated for 60 minutes at room temperature. The lipid pocket probe competes with the test compound for the TEAD lipid pocket until equilibrium is reached. After 60 minutes, Europium labelled anti-His (Perkin Elmer #AD0110) and XL665 labelled streptavidin (CIS Bio 610SAXAC) are added to the TEAD/test compound/lipid pocket mixture and incubated for 30 minutes or 4 hours. TR-FRET values are then measured using an EnVision multi-label plate reader (Perkin Elmer Cat #2104-0010A.) If the lipid pocket probe binds to TEAD as expected, a TR-FRET signal results from the proximity of anti-His Eu and XL665. If a TEAD lipid pocket binder such as binds and displaces the lipid pocket probe, the disruption of the TEAD:probe interaction results in a decrease in TR-FRET signal. The potency of compounds as TEAD lipid pocket binders is determined by IC50 value generated using a non-linear 4 parameter curve fit.

TEAD1 = TEAD1 (Homo sapiens (Human), UniProt P28347); assay: TR-FRET lipid pocket probe competition assay (Lipid HTRF), TEAD1; assay type: binding;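 further: His-tagged TEAD1 with biotinylated probe, detected via Europium anti-His and XL665 streptavidin, probe displacement lowers TR-FRET signal, IC50 from four-parameter nonlinear fit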
TEAD1, sequence (P28347 whole entry, species assumed): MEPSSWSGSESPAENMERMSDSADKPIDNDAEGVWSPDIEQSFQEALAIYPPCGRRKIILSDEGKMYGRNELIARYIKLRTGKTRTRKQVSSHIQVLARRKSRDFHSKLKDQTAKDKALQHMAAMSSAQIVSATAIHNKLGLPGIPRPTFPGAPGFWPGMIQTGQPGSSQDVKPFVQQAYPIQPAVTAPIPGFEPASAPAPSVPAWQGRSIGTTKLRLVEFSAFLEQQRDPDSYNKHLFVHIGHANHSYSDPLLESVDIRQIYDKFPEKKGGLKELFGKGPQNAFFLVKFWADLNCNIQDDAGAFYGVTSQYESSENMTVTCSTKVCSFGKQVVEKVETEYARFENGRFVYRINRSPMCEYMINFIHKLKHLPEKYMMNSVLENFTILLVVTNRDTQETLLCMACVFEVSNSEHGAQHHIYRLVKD

TEAD4 = TEAD4 (Homo sapiens (Human), UniProt Q15561); assay: TR-FRET lipid pocket probe competition assay (Lipid HTRF), TEAD4; assay type: binding;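 further: His-tagged TEAD4 with biotinylated lipid-pocket probe, read by Europium anti-His and XL665 streptavidin, where probe displacement lowers the TR-FRET signal, IC50 from a four-parameter fit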
TEAD4, sequence (Q15561 whole entry, species assumed): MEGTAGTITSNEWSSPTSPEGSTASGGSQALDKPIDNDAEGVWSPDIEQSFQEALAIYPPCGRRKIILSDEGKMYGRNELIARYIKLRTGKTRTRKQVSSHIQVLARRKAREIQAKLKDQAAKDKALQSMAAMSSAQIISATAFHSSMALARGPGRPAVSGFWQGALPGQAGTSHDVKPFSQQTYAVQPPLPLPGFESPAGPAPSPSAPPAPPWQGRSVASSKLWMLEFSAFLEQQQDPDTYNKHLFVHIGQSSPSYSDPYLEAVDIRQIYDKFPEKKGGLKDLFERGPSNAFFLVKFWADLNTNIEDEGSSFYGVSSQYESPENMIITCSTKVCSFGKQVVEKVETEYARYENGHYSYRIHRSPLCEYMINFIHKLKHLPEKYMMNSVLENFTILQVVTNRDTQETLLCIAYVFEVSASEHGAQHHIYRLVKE
Description: as §1

hNav1.5 sodium channels = hNav1.5 sodium channels (Homo sapiens (Human), UniProt Q14524); assay: Cloned hNav1.5 sodium channels expressed in CHO cells, QPatch HT automated patch clamp; assay type: cell-based
hNav1.5 sodium channels, sequence (Q14524 whole entry): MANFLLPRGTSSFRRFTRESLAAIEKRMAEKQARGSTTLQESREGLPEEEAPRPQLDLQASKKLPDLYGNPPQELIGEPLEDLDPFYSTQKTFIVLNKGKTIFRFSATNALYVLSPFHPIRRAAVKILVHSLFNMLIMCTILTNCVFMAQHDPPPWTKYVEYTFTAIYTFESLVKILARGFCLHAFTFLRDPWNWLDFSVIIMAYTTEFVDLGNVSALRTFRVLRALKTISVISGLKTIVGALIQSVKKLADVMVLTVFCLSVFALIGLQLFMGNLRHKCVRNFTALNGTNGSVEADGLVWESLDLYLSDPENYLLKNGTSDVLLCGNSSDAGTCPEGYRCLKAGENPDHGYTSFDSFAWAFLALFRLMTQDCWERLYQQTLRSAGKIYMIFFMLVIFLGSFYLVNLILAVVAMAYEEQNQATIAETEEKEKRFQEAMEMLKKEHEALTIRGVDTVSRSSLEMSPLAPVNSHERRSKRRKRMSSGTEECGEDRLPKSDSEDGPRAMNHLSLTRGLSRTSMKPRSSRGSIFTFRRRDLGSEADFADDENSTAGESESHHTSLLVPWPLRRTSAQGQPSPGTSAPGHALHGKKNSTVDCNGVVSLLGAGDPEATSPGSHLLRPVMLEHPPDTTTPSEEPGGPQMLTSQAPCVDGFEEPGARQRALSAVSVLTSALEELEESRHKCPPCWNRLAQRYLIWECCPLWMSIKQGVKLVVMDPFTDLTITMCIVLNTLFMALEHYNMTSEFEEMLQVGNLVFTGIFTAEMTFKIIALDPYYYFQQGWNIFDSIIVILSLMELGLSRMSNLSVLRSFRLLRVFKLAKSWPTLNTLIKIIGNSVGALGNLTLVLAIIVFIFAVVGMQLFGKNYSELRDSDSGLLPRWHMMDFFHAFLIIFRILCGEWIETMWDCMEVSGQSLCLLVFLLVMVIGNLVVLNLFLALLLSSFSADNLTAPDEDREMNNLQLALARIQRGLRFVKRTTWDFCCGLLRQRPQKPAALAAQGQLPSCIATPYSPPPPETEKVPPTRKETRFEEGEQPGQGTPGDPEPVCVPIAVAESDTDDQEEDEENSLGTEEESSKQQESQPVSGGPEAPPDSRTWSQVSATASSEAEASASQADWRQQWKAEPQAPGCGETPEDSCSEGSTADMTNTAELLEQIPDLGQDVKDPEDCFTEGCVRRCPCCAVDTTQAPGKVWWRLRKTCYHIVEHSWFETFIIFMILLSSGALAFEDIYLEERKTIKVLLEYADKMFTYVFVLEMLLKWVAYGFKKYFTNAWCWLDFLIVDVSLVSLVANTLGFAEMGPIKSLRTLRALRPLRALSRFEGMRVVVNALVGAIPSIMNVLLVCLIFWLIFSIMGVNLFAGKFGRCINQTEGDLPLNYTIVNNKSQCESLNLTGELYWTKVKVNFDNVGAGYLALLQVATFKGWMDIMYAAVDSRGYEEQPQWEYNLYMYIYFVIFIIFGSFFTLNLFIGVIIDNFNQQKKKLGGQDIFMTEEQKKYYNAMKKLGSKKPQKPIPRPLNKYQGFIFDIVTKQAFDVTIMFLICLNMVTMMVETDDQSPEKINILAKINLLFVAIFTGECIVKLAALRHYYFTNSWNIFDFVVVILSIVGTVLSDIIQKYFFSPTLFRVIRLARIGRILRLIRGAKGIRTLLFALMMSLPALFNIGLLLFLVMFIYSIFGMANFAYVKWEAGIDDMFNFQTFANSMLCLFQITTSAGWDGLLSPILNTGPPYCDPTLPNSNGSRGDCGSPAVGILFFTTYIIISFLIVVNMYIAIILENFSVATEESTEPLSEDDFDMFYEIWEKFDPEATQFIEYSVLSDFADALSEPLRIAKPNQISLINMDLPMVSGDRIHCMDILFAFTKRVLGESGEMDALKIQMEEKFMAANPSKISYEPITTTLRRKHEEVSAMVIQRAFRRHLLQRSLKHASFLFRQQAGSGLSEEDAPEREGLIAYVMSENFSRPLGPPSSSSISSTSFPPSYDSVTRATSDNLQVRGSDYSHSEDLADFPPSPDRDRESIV
Description: Example 183 A: Effects of Test Article on Cloned hNav1.5 Sodium Channels Expressed in Mammalian Cells
Chinese hamster ovary (CHO) cells expressing cloned hNav1.5 sodium channels (hNav1.5, encoded by the human SCNSA gene) are responsible for INa sodium channel current. From a 10 mM stock solution, test article was diluted to make a 1 mM, 0.1 mM, and 0.01 mM sub stock, which were stored frozen. All chemicals used in solution preparation were purchased from Sigma-Aldrich (St. Louis, MO) and were of ACS reagent grade purity or higher. Stock solutions of the test articles and the positive control were prepared in dimethyl sulfoxide (DMSO) and stored frozen. Test article and positive control concentrations were prepared fresh daily by diluting stock solutions into a HEPES-buffered physiological saline (HB-PS) solution (composition in mM): NaCl, 137; KCl, 4.0; CaCl2, 1.8; MgCl2, 1; HEPES, 10; Glucose, 10; pH adjusted to 7.4 with NaOH (refrigerated until use). […] Each test article formulation was sonicated (Model 2510/5510, Branson Ultrasonics, Danbury, CT) at room temperature for 20 minutes to facilitate dissolution. In preparation for the recording session, a glass-lined 96-well compound plate was loaded with the appropriate amounts of test and control solutions and placed in the plate well of the QPatch HT® (Sophion Bioscience A/S, Denmark), an automatic parallel patch clamp system. […]

TEAD2 [2] = target: T1, TEAD2
Description: as §2

[3] = 4 hours pre-incubation, read-out: Lipid HTRF TEAD3 IC50
[4] = 4 hours pre-incubation, read-out: Lipid HTRF TEAD1 IC50
[5] = 4 hours pre-incubation, read-out: Lipid HTRF TEAD4 IC50

TEAD3, sequence (Q99594 whole entry, species assumed): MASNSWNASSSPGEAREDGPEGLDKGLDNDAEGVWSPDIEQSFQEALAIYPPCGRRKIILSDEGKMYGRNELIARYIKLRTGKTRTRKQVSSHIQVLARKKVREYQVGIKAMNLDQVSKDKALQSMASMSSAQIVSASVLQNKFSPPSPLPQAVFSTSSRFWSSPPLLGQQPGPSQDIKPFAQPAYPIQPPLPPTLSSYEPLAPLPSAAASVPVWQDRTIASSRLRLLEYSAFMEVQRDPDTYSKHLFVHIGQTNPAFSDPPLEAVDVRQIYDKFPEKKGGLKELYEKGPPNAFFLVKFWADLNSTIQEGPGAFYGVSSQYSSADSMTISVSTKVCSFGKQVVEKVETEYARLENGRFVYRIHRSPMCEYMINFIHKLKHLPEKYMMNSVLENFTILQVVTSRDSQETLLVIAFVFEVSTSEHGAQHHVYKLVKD

Row | Structure (SMILES) | IC50 (TEAD3) | IC50 (TEAD2 [1]) | IC50 (TEAD1) | IC50 (TEAD4) | IC50 (hNav1.5 sodium channels; 0.01-100 uM, read-out: NaV1.5 (Phasic) IC50) | IC50 (TEAD3; [3]) | IC50 (TEAD1; [4]) | IC50 (TEAD4; [5]) | NaV1.5 (Phasic) 10 uM concentration % inhibition (hNav1.5 sodium channels; 10 uM, mean % inhibition, n>=2 cells) | IC50 (TEAD2 [2])
1 | [2H]C([2H])=C([2H])C(=O)NCc1nn(-c2ccc(OC(F)(F)F)cc2)c2nccc([C@H](O)CO)c12 [Compound 154, (S)-N-((4-(1,2-Dihydroxyethyl)-1-(4-(trifluoromethoxy)phenyl)-1H-pyrazolo[3,4-b]pyridin-3-yl)methyl)acrylamide-2,3,3-d3] | 1200 nM | 36 nM | 44 nM | 22 nM |  |  |  |  |  | 
2 | C=C(F)C(=O)N1CC(c2nn(-c3ccc(OC(F)(F)F)cc3)c3nccc(CO)c23)C1 [Compound 20, 2-fluoro-1-[3-[4-(hydroxymethyl)-1-[4-(trifluoromethoxy)phenyl]pyrazolo[3,4-b]pyridin-3-yl]azetidin-1-yl]prop-2-en-1-one] |  |  |  |  | 42.1 µM |  |  |  |  | 
3 | [2H]C([2H])=C([2H])C(=O)NCc1nn(-c2ccc(OC(F)(F)F)cc2)c2nccc(CO)c12 [Compound 111, 2,3,3-Trideuterio-N-[[4-(hydroxymethyl)-1-[4-(trifluoromethoxy)phenyl]pyrazolo[3,4-b]pyridin-3-yl]methyl]prop-2-enamide] |  | 62 nM |  |  |  | 290 nM | 16 nM | 28 nM |  | 
4 | C=CC(=O)NCc1nn(-c2ccc(S(F)(F)(F)(F)F)cc2)c2nccc([C@H](O)CO)c12 (stereo in doubt) [Compound 23, N-((4-(1,2-dihydroxyethyl)-1-(4-(pentafluoro-λ^6-sulfanyl)phenyl)-1H-pyrazolo[3,4-b]pyridin-3-yl)methyl)acrylamide] |  | 66 nM |  |  |  | 890 nM | 43 nM | 17 nM |  | 
5 | C=CC(=O)NCc1nn(-c2ccc(OC(F)(F)F)cc2)c2nccc([C@H](O)CO)c12 [Compound 17, N-[[4-[(1S)-1,2-dihydroxyethyl]-1-[4-(trifluoromethoxy)phenyl]pyrazolo[3,4-b]pyridin-3-yl]methyl]prop-2-enamide] |  |  |  |  |  | 770 nM | 35 nM | 20 nM | 32.1% | 32 nM
6 | C=CC(=O)NCc1nn(-c2ccc(C(F)(F)F)cc2)c2nccc([C@H](O)CO)c12 (stereo in doubt) [Compound 100, N-((4-(1,2-dihydroxyethyl)-1-(4-(trifluoromethyl)phenyl)-1H-pyrazolo[3,4-b]pyridin-3-yl)methyl)acrylamide] |  | 520 nM |  |  |  | 720 nM | 480 nM | 100 nM |  | 
7 | C=CC(=O)NCc1nn(-c2cccc(OC(F)(F)F)c2)c2nccc([C@@H](O)CO)c12 (stereo in doubt) [Compound 131, N-((4-(1,2-dihydroxyethyl)-1-(3-(trifluoromethoxy)phenyl)-1H-pyrazolo[3,4-b]pyridin-3-yl)methyl)acrylamide] |  | 89 nM |  |  |  | 2900 nM | 290 nM | 30 nM |  | 
8 | C=CC(=O)NCc1nn(-c2ccc(C(F)(F)F)cc2)c2nccc([C@@H](O)CO)c12 (stereo in doubt) [Compound 88, N-((4-(1,2-dihydroxyethyl)-1-(4-(trifluoromethyl)phenyl)-1H-pyrazolo[3,4-b]pyridin-3-yl)methyl)acrylamide] |  | 150 nM |  |  |  | 2100 nM | 80 nM | 43 nM |  | 
9 | C=CC(=O)NCc1nn(-c2cccc(OC(F)(F)F)c2)c2nccc([C@H](O)CO)c12 (stereo in doubt) [Compound 73, N-((4-(1,2-dihydroxyethyl)-1-(3-(trifluoromethoxy)phenyl)-1H-pyrazolo[3,4-b]pyridin-3-yl)methyl)acrylamide] |  | 430 nM |  |  |  | 290 nM | 870 nM | 33 nM |  | 
10 | C=CC(=O)NCc1nn(-c2ccc(S(F)(F)(F)(F)F)cc2)c2nccc([C@@H](O)CO)c12 (stereo in doubt) [Compound 27, N-((4-(1,2-dihydroxyethyl)-1-(4-(pentafluoro-λ^6-sulfanyl)phenyl)-1H-pyrazolo[3,4-b]pyridin-3-yl)methyl)acrylamide] |  | 270 nM |  |  |  | 1100 nM | 290 nM | 71 nM |  | 
11 | C=CC(=O)NCc1nn(-c2ccc(OC(F)(F)F)cc2)c2nccc(N3CCOCC3)c12 [Compound 77, N-((4-morpholino-1-(4-(trifluoromethoxy)phenyl)-1H-pyrazolo[3,4-b]pyridin-3-yl)methyl)acrylamide] |  | 40 nM |  |  |  | 5700 nM | 93 nM | 65 nM |  | 

Reference: US12110276B2 (Genentech, Inc., priority 2021, dated 2024)
